Laboratory results from US8455225B2, “Yeast with increased butanol tolerance involving high osmolarity/glycerol response pathway” (Butamax Advanced Biofuels LLC, priority 2008, dated 2013).

tested on: PBS2 deletion strains; test: not given; conditions: homozygous deletion set screens (Fuijta et al. 2006; van Voorst et al. 2006) and other literature; cited from earlier work

Molecule | hypersensitivity of PBS2 deletion strains
CCO [ethanol] | not found to be hypersensitive
tunicamycin | hypersensitive
COC(=O)Nc1nc2ccc(C(=O)c3cccs3)cc2[nH]1 [nocodazole] | hypersensitive
CCCO [propanol] | not found to be hypersensitive
O=[As][O-].[Na+] [sodium metaarsenite] | hypersensitive
O[C@H](CS)[C@H](O)CS (racemic) [dithiothreitol] | hypersensitive
CCCCCO [pentanol] | not found to be hypersensitive
[Ca+2].[Cl-].[Cl-] [CaCl2] | hypersensitive
OC[C@@H](O)[C@@H](O)[C@H](O)[C@@H](O)CO [sorbitol] | hypersensitive
[Cl-].[Na+] [NaCl] | hypersensitive
OCCS [2-mercaptoethanol] | hypersensitive

tested on: haploid cells; test: not given; conditions: Lorenz et al. 2000; cited from earlier work

Molecule | effect on growth morphology
CCCCO [1-butanol] | stimulates filamentous growth in haploid cells

tested on: PBS2p over-producing strain; test: Growth yield in the presence of isobutanol, PBS2 ORF overexpressed from GAL1 promoter; format: cell-based, Saccharomyces cerevisiae; conditions: 1% isobutanol, PBS2p over-producing strain vs BY4741
Procedure: The effect of overexpression of the PBS2 coding region was assessed as follows. A Yeast ORF collection (Gelperin, White et al. (2005) Genes Dev. 19(23):2816-2826)_is available from Open Biosystems (Huntsville, Ala.). In this collection yeast ORFs are expressed from the GAL1 promoter in the vector BG1805. This vector can be introduced into ura3 yeast mutants and transformants selected for uracil prototrophy. In the presence of galactose and the absence of glucose, expression from the GAL1 promoter is elevated about 1000 fold relative to the barely detectable level observed with glucose grown cells (Johnston and Davis (1984) Mol. Cell. Biol. 4(8):1440-1448). Note that each ORF encodes a fusion protein of the form:
A plasmid containing the PBS2 ORF was obtained from this collection (YSC3867-9523439) and transformed into yeast strain BY4741 selecting for uracil prototrophy. […] Growth yield was measured by the following method. […] Absorbance was recorded.
Cultures were grown for 2-3 hours to allow one doubling. Absorbance was recorded at this time and was called T=0. […] OD600 was measured after incubation on a roller drum for 2 days. […] Percent growth was calculated as 100×[average A600 of the triplicate isobutanol challenged cultures/average A600 of the triplicate control cultures.

Molecule | improvement in growth yield over the parental strain
CC(C)CO [isobutanol] | 41%

tested on: translation at the initiation step; test: not given; conditions: Ashe et al. 2001; cited from earlier work

Molecule | effect on translation
butanol | rapid inhibition of translation at the initiation step
